The text below walks through data of US20080027023A1, “Antiproliferative Compositions Comprising Aryl Substituted Xylopyranoside Derivatives” (priority 2004, published 2008).

Series [1] has as its system human bladder carcinoma T24 cells. Description: Cellular growth assay, human bladder carcinoma T24 cells. It counts as cell-based. The following applies: for cytotoxic effect on T24 cells: 0.5 mM xyloside, FIG. 5A / FIG. 2. An excerpt: (§1) Cells were obtained from American type culture collection (ATCC, Rockville, Md.). Regular cell culture media, L-glutamine, penicillin-streptomycin, trypsin, and donor calf serum were obtained from Life Technologies. Dulbeccos Modified Earles Medium, medium 199 and Ham's F-12 medium were purchased from Sigma, difluoromethylornithine (DFMO) was from ILEX Oncology, San Antonio, Tex. Epidermal growth factor was purchased from Genzyme, Cambridge, Mass. and crystal violet from Merck, Germany.
(§2) Cells were cultured as monolayers in Dulbeccos Modified Earles Medium (DMEM) supplemented with 10% (v/v) fetal bovine serum, 2 mM L-glutamine, penicillin (100 U/mL) and streptomycin (100 μg/mL) in an incubator with humidified atmosphere and 5% CO2 at 37° C.
(§3) The growth assay procedure has been described elsewhere (Mani et al., 1998, Cancer Res. 58: 1099-1104). Cells were seeded into 96-well microculture plates at 3000 cells/well in DMEM supplemented with insulin (10 ng/mL), transferrin (25 ng/mL) and 10% fetal calf serum. After 4 h of plating the cells were placed in serum-free Ham's F-12 medium supplemented with insulin (10 ng/mL) and transferrin (25 ng/mL) for an additional 24 h. […] In some experiments cells were pre-treated with DFMO to up-regulate spermine uptake (Belting et al., 2003, J. Biol. Chem. 278: 47181-47189). Controls without growth factor as well as solvent (DMSO) controls were included. The total time of exposure to the various agents was 5 days. Cells were fixed in 1% glutaraldehyde dissolved in Hanks balanced salt solution (NaCl 80 g/L, KCl 4 g/l, glucose 10 g/L, KH2PO4 600 mg/L, NaHPO4 475 mg/L) for 15 min, then cell nuclei were stained with 0.1% crystal violet. After washing and cell lysis for 24 h in Triton X-100, the amount of bound dye was measured at A600 in a microplate photometer (Titertek multiscan). The results are presented as the difference between A600 obtained after 5 days and that obtained immediately after seeding of the cells (t=0).

The subject of series [2] is rat C6 glioma cells implanted subcutaneously. Description: Subcutaneous C6 glioma tumors in SCID mice. It counts as in vivo. Here is the method:
(§4) Treatment with xyloside was daily contralateral subcutaneous injections (1.7 mM solution; 0.5 ml for mice, 5 ml for rats) for 2 weeks. DFMO (0.1% w/v) was administered via the drinking water.
(§5) Female SCIDnodCA mice (7-8 weeks old) or Fisher rats (12 week old) were kept under pathogen-free conditions in the animal barrier facility at the Biomedical Center, Lund University, according to the Swedish guidelines for humane treatment of laboratory animals. The experimental set-up was approved by the ethical committee for animal research in Malmö/Lund, Sweden. To generate tumors, rat C6 glioma cells or human bladder T24 carcinoma cells (1×10^6 cells in 200 μl PBS) were injected subcutaneously in the dorsal region of 7-8 week old mice (n=4-8) or intracerebrally in rats.
(§6) In the present studies, animals (n=8) received 1.7 mM Xyl-2-Nap-6-OH, i.e. a saturated solution, either ad libitum via the drinking water, or by daily injections either subcutaneously (0.5 ml for mice, 5 ml for rats) or intraperitoneally (0.5 ml) for a total period of up to 2 weeks. Controls received drinking water with no additives or daily injections with sterile water. Food and water intake and changes in body weight were monitored. The xyloside was administered either concurrent with or 3 weeks post-injection. In the latter case, the animals were randomly divided into control and treatment groups with no significant differences in tumor volume. The animals were sacrificed following 2-3 weeks of treatment, and tumor mass or volume was recorded.

The nature of series [3]: Saturated solution used for dosing. Particulars: drinking water / injection solution. The class given is physicochemical. The procedure: as §6
For series [4], the system named is HepG2 hepatoma cells. Description: Growth inhibition of HepG2 hepatoma cells. The class given is cell-based. The following applies: combination with DFMO and spermine-NONOate.
The subject of series [5] is tumor cells located subcutaneously or orthotopically. Put plainly: Other animal experiments, tumor-bearing mice, various routes of administration. The class given is in vivo. Here is the method: as §5, §6
Treatment with Xyl-2-Nap-6-OH reduce the average tumor load by 70-97% in mice receiving the compound concomitant with tumor cell inoculation as well as in mice with pre-formed tumors. […] Side-effects via inhibition of proteoglycan synthesis in cartilage and connective tissues is unlikely, as xyloside concentrations greater than 2 mM are required for their inhibition in vitro (Moses et al., 1999, Eur, J. Biochem. 26: 879-884).

For series [6], the system named is A549 cells. Description: Growth inhibition of A549 cells. The class given is cell-based. Particulars: combination with DFMO and spermine-NONOate.
For series [7], the system named is SV40 virus infected fibroblasts. Description: Growth inhibition of SV40 virus infected fibroblasts. The class given is cell-based. The following applies: combination with DFMO and spermine-NONOate.
The subject of series [8] is HepG2 hepatoma cells. The following applies: Mani et al. Glycobiology 14: 387-397; cited from earlier work.
In series [9] the test system is rat C6 glioma cells implanted intracerebrally. Put plainly: Intracerebral C6 glioma tumors in rats. It counts as in vivo. Here is the method:
as §4, §5
as §6, with “In the latter case, the animals were randomly divided into control and treatment groups with no significant differences in tumor volume.” left out

Series [10] concerns normal human lung fibroblasts. Put plainly: Cellular growth assay, normal human lung fibroblasts. It counts as cell-based.
Excerpt: as §1, §2
The growth assay procedure has been described elsewhere (Mani et al., 1998, Cancer Res. 58: 1099-1104). Cells were seeded into 96-well microculture plates at 3000 cells/well in DMEM supplemented with insulin (10 ng/mL), transferrin (25 ng/mL) and 10% fetal calf serum. After 4 h of plating the cells were placed in serum-free Ham's F-12 medium supplemented with insulin (10 ng/mL) and transferrin (25 ng/mL) for an additional 24 h. […] After washing and cell lysis for 24 h in Triton X-100, the amount of bound dye was measured at A600 in a microplate photometer (Titertek multiscan). […]

For series [11], the system named is SV40 virus infected fibroblasts. The following applies: Mani et al. Glycobiology 14: 387-397; cited from earlier work.
A further series relates to rat C6 glioma cells. Put plainly: Cellular growth assay (crystal violet, A600), rat C6 glioma cells. Particulars: for inhibits growth: FIG. 1B; for growth-inhibitory effect compared to untreated cells (control): FIG. 1A; for effect on cell growth: FIG. 4. It counts as cell-based.
Excerpt: as §1, §2, §3

Series [12] relates to A549 cells. Particulars: Mani et al. Glycobiology 14: 387-397; cited from earlier work.
The conditions of series [13]: after uptake by DFMO-treated cells; cited from earlier work.
Another series concerns cells. Description: Uptake of xyloside when added to cells. It counts as cell-based. An excerpt: Referring to FIG. 4, the results of treating rat C6 glioma cells with peracetylated Gal-4-Xyl-2-Nap-6-OH are shown. […] The reason for this difference is that peracetylated Gal-4-Xyl-2-Nap-6-OH is deacetylated by non-specific esterases after uptake into cells, whereby the resulting non-acetylated Gal-4-Xyl-2-Nap-6-OH remains trapped inside the cell resulting in a much higher local concentration. Accordingly, non-acetylated Gal-4-Xyl-2-Nap-6-OH is not taken up when added to cells.

Turning to `Oc1ccc2cc(OC3OCC(O)C(O)C3O)ccc2c1` (centres unmarked) [Xyl-2-Nap-6-OH], the “effect on cell growth” value in series [1] (0.2 mM xyloside alone, FIG. 2) was “marginally affected”; in series [1] (0.2 mM xyloside and 5 mM DFMO with 2.5 5 μM spermineNONOate) it was “insufficient”; in series [1] (0.2 mM xyloside combined with 5 mM DFMO and 5 μM spermineNONOate, FIG. 2), “complete cell death”; in series [1] (0.5 mM xyloside alone, FIG. 2), “completely growth-arrested”. Also, the “cytotoxic effect on T24 cells” value in series [1] is given as “marginally cytotoxic”. For the same molecule, the “subcutaneous C6 glioma tumor weight reduced” value in series [2] (SCID mice, daily contralateral s.c. injections of 1.7 mM solution, 0.5 ml, 2 weeks, FIG. 6A) amounted to 78%. In addition, the tumor-load reduced in series [2] (mice treated with xyloside plus DFMO 0.1% w/v via the drinking water, FIG. 6C) turned out to be 83%. The “concentration of saturated solution” value in [3] is 1700 µM. The “effect of xyloside with DFMO and spermine-NONOate” value (in the series on HepG2 hepatoma cells [4]; with A549 cells [6]; in series [7]) was “Synergistic cytotoxic effects” each time. Also, the “reduction of average tumor load” value in series [5] (mice, compound given concomitant with tumor cell inoculation or to pre-formed tumors) was 70-97%. In addition, in series [5] (mouse, in vivo), the “toxic side-effects in vivo” value is “lack of obvious toxic side-effects”. The “absorption and availability to tumor cells” value in series [5] (various ways of administration including oral) is “adsorbed and made available to tumor cells”. Also, the growth inhibition entry (in the series on HepG2 hepatoma cells [8]; in series [11]; with A549 cells [12]) was “selectively inhibits growth” throughout. Also, the blood-brain barrier penetration entry in series [9] (inferred from reduced intracerebral tumor volume in rats) is reported as “can penetrate the blood-brain barrier”. Moreover, the tumor volume entry in series [9] (rats, intracerebral C6 glioma, daily s.c. injections of 1.7 mM solution, 5 ml, 2 weeks, FIG. 6B) was “reduced”. In addition, the “reduction of cell growth” value in series [10] (0.2 mM xyloside, 5 mM DFMO and 5 μM spermineNONOate, FIG. 3) was 20%. Moreover, the inhibits growth in the series with rat C6 glioma cells (0.5 mM xyloside alone) is recorded as 65%; in the series with rat C6 glioma cells (0.5 mM xyloside combined with 5 mM DFMO and 5 μM spermineNONOate), 93%.
With `CC(=O)Oc1ccc2cc(O[C@@H]3OC[C@@H](OC(C)=O)[C@H](OC(C)=O)[C@H]3OC(C)=O)ccc2c1` [peracetylated Xyl-2-Nap-6-OH], the “cytotoxic effect on T24 cells” value in [1] is reported as “clear cytotoxic effect”. In series [10] (0.5 mM xyloside, FIG. 5B), the “effect on growth of normal human fibroblasts” value is listed as “does not affect growth”.
With `NCCCNCCCCN(CCCN)/[N+]([O-])=N/O` [spermineNONOate, reference compound], in series [13], the “half-life of intracellular NO release” value is listed as 4 h. The “growth-inhibitory effect compared to untreated cells (control)” value in the series on rat C6 glioma cells (5 μM spermineNONOate alone) is listed as “no significant growth-inhibitory effect”.
In the case of `CC(=O)OC[C@H]1O[C@@H](O[C@@H]2CO[C@@H](Oc3ccc4cc(OC(C)=O)ccc4c3)[C@H](OC(C)=O)[C@H]2OC(C)=O)[C@H](OC(C)=O)[C@@H](OC(C)=O)[C@H]1OC(C)=O` [peracetylated Gal-4-Xyl-2-Nap-6-OH], the “effect on cell growth” value is reported as “complete growth-arrest” with rat C6 glioma cells (0.2 mM xyloside alone); “significant cytotoxic effect” in the series on rat C6 glioma cells (xyloside in combination with 5 mM DFMO and 5 μM spermineNONOate). For the same molecule, in the series on rat C6 glioma cells (comparison of FIG. 4 with FIG. 1B), the “potency relative to Xyl-2-Nap-6-OH at the same concentrations” value was “at least 5 fold”.
On to `NCCC[C@](N)(C(=O)O)C(F)F` [DFMO, α-difluoromethylornithine, reference compound], for which the “higher concentration of DFMO in the drinking water required for the same effect with DFMO alone” value in series [2] (relative to 0.1% w/v DFMO given with Xyl-2-Nap-6-OH (83% reduction)) is 10-20 fold. For the same molecule, the “growth-inhibitory effect compared to untreated cells (control)” value in the series with rat C6 glioma cells (5 mM DFMO alone) is “no significant growth-inhibitory effect”.
With `OC[C@H]1O[C@@H](O[C@@H]2CO[C@@H](Oc3ccc4cc(O)ccc4c3)[C@H](O)[C@H]2O)[C@H](O)[C@@H](O)[C@H]1O` [Gal-4-Xyl-2-Nap-6-OH, 2-(6-hydroxynaphthyl)-4-O-(β-D-galactopyranosyl)-β-D-xylopyranoside], the “uptake when added to cells” value in the series with cells is “not taken up”.
